Laboratory results reported in US4232121A, “Process for selecting methine dyes which inhibit cell growth” (Eastman Kodak Company, priority 1978, dated 1980).
Several values for one entry are separate records, joined by “and”; a condition that tells them apart may be missing. Equal entries are not always repeated. Where two headings read alike, the source gives them in different places.

How the values were obtained:
[1] = Oxidation potential (Eox) of the dye; assay type: physicochemical; conditions: Tables I, II, V, VI
[2] = test system: Bacillus pumilus strain K-1; assay: Inhibition of bacterial growth, filter paper on inoculated agar plates; assay type: cell-based
[3] = Reduction potential (ER) of the dye
Protocol: (§3) If a published reduction potential is not available, suitable techniques for measuring reduction potential are available and can be used. […] This technique involves measurement at 20° C., of an approximately 10^-4 molar solution of the dye in an electrolyte, such as methanol which is 0.05 molar in lithium chloride, using a dropping mercury electrode. The potential values are reported by reference to a silver-silver chloride electrode in a saturated solution of potassium chloride at 20° C.

Alcaligenes faecalis = assay: Inhibition of bacterial growth, filter paper technique; assay type: cell-based; conditions: Table VIII; 10^-3 molar; Gram -; 37° C./48 hrs
Protocol: (§1) Schleider and Schuell #740-E filter paper (12.7 mm diameter) was dipped in the dye solution, touched to the side of the beaker to removed excess dye, and placed in the center of the inoculated agar plates (prepared in (B) above). The plates were then incubated at 26° C. for […]. The plates were then examined to determine if bacterial growth had been affected by the dye-containing filter paper. With certain dyes bacterial growth was inhibited in a circular area around the filter paper. With other dyes no such area of inhibition was observed.
(§2) Cultures of various gram-negative and gram-positive bacteria were prepared in nutrient and Tryptic Soy Agar and plates were poured as described in Example 1. Methanolic solutions of cyanine dyes were prepared at 10^-3 molar and applied to the plates using the filter paper technique described in Example 1. Control plates were prepared in which the filter paper contained methanol or a 0.2 molar aqueous solution of phenol. The plates were then incubated at 26° C. or 37° C. for forty-eight hours.

Bacillus cereus = assay: as above; assay type: cell-based; conditions: Bacillus cereus; Table VIII; 10^-3 molar; Gram +; 26° C./48 hrs; read-out: Area of Inhibition (diameter)
Protocol: as §1, §2

Bacillus megaterium = assay: as above; assay type: cell-based; conditions: Priestia megaterium; Table VIII; 10^-3 molar; Gram +; Tryptic Soy; 37° C./48 hrs; read-out: Area of Inhibition (diameter)
Protocol: as §1, §2

Bacillus subtilis = assay: as above; assay type: cell-based; conditions: Table VIII, 10^-3 molar, Gram +, 26° C./48 hrs, read-out: Area of Inhibition (diameter)
Protocol: as §1, §2

Enterobacter aerogenes = assay: as above; assay type: cell-based; conditions: Table VIII; 10^-3 molar; Gram -; 37° C./48 hrs
Protocol: as §1, §2

[4] = test system: Escherichia coli, Strain B; assay: as above; assay type: cell-based; conditions: Table VIII; 10^-3 molar; Gram -; 37° C./48 hrs
Protocol: as §1, §2

Micrococcus flavus = assay: as above; assay type: cell-based; conditions: Micrococcus flavus; Table VIII; 10^-3 molar; Gram +; 26° C./48 hrs; read-out: Area of Inhibition (diameter)
Protocol: as §1, §2

Micrococus luteus = assay: as above; assay type: cell-based; conditions: Table VIII; 10^-3 molar; Gram +; 26° C./48 hrs; read-out: Area of Inhibition (diameter)
Protocol: as §1, §2

Proteus vulgaris = assay: as above; assay type: cell-based; conditions: Table VIII; 10^-3 molar; Gram -; 37° C./48 hrs
Protocol: as §1, §2

Sea Urchin Eggs = assay: Inhibition of cell division in fertilized sea urchin eggs; assay type: cell-based; conditions: arbitrary scale 0 to 5, 5 most active; dye 10^-5 to 10^-6 molar, 60 minutes after fertilization
Protocol: To suspensions in filtered sea water of fertilized sea urchin eggs there was added, three minutes after fertilization, methanolic solutions of the dyes in an amount sufficient to yield a final concentration of dye of between 10^-5 and 10^-6 molar. The final concentration of methanol was, at a maximum 1×10^-4 molar. The eggs were visually observed at 60 minutes after fertilization to determine if cell division and the formation of mitotic apparatus had been inhibited. A rating was assigned based on the concentration of dye required to inhibit cell division and synthesis of DNA.

[5] = test system: the bacteria (various gram-negative and gram-positive); assay: Binding of dyes to the bacteria of Example 9; conditions: determined as in Example 8
Protocol: In addition, binding of dyes 7, 17 and 24 to the bacteria was determined as in Example 8.

[6] = not told
Protocol: as §3

[7] = Solubility / stability comments on the dyes; assay type: physicochemical; conditions: Table IX
[8] = Bacillus pumilus, K1, 48 h, Table VIII, 10^-3 molar, Nutrient, 37° C./48 hrs, read-out: Area of Inhibition (diameter)
[9] = Bacillus pumilus, K1, 72 h, Tables V and VI, 10^-3 molar, three days, read-out: Diameter of Inhibition
[10] = Bacillus pumilus, K1, Table II, 10^-4 molar, 26° C., forty-eight hours, read-out: Diameter of Inhibition
[11] = Bacillus pumilus, K1, Table IX, 10^-3 M, read-out: Diameter of Inhibition
[12] = Bacillus pumilus, K1, Table IX, 10^-4 M, read-out: Diameter of Inhibition

Row | SMILES | Eox [1] | Activity Rating [2] | zone of inhibition at 1000 µM [2, 8] | zone of inhibition at 1000 µM [2, 9] | zone of inhibition at 100 µM [2, 10] | zone of inhibition at 1000 µM [2, 11] | % Bound (Bacillus pumilus (K-1)) | Area of Inhibition (diameter) (Alcaligenes faecalis) | zone of inhibition at 1000 µM (Bacillus cereus) | zone of inhibition at 1000 µM (Bacillus megaterium) | zone of inhibition at 1000 µM (Bacillus subtilis) | Area of Inhibition (diameter) (Enterobacter aerogenes) | Area of Inhibition (diameter) [4] | zone of inhibition at 1000 µM (Micrococcus flavus) | zone of inhibition at 1000 µM (Micrococus luteus) | Area of Inhibition (diameter) (Proteus vulgaris) | Sea Urchin Eggs Activity (Sea Urchin Eggs) | binding to the bacteria (in words) [5] | ER [6] | reduction potential (ER) [6] | other results
1 | CCN1C(=CC=Cc2sc3cc([N+](=O)[O-])ccc3[n+]2CC)Sc2cc([N+](=O)[O-])ccc21 [17,6,6'-dinitro] | +.96 | – | – | – | – | – | – | – | – | – | – | – | – | – | – | – | – | – | – | – | Diameter of Inhibition ([2]; Tables V and VI, 10^-3 molar, three days): None; ER ([3]; Tables I, II, V, VI, VII, IX): -.58
2 | CCN1C(=CC=Cc2oc3ccccc3[n+]2CC)Oc2ccccc21 [Dye 7] | – | 100 | 24 mm | 34 mm | 25.5 mm | 34 mm | 31.7% | No | 14 mm | 21 mm | 18 mm | No | No | 19 mm | 16 mm | No | +4 | found to bind | -1.26 | -1.26 volts | zone of inhibition at 100 µM ([2]; Bacillus pumilus, K1, Table I, 10^-4 molar, 26° C., fifty hours, dark, read-out: Diameter of Inhibition): 22.5 mm; zone of inhibition at 100 µM ([2]; Bacillus pumilus, K1, Table III, 1.0 × 10^-4 M, read-out: Diameter of Inhibition): 26 mm; zone of inhibition at 200 µM ([2]; Bacillus pumilus, K1, Table III, 2.0 × 10^-4 M, read-out: Diameter of Inhibition): 29 mm; zone of inhibition at 25 µM ([2]; Bacillus pumilus, K1, Table III, 2.5 × 10^-5 M, read-out: Diameter of Inhibition): 14.5 mm; zone of inhibition at 50 µM ([2]; Bacillus pumilus, K1, Table III, 5.0 × 10^-5 M, read-out: Diameter of Inhibition): 20 mm; zone of inhibition at 100 µM [2, 12]: 25.5 mm; degree of inhibition compared with phenol (in words) ([2]; dye 7 at 1×10^-4 molar): same degree of inhibition as phenol at 2.13×10^-1 molar; times more active as an inhibitor than phenol ([2]; dye 7 at 1×10^-4 molar vs phenol at 2.13×10^-1 molar): ~2000 times
3 | CCN1C(=CC=Cc2sc3ccc4ccccc4c3[n+]2CC)Sc2ccc3ccccc3c21 [Dye 12] | – | – | – | – | – | – | 93.1% | – | – | – | – | – | – | – | – | – | 0 | – | -1.12 | -1.12 volts | Comment: solubility [7]: Insoluble
4 | CCN1C(=CC=Cc2sc3ccccc3[n+]2CC)Sc2ccccc21 [Dye 17] | – | 18 and 31 | 17 mm | 19 mm | 16.5 mm | 19 mm | 73.1% | No | 13 mm | 14 mm | 15 mm | No | No | 15 mm | 14 mm | No | +4 | found to bind | -1.00 | -1.00 volts | effect upon diameter of inhibition as a result of changing the anion ([2]; 10^-3 molar, three days): no effect upon diameter of inhibition; zone of inhibition at 100 µM [2, 12]: 16.5 mm
5 | CCN1C(=CC=Cc2n(CC)c3nc4ccccc4nc3[n+]2CC)N(CC)c2nc3ccccc3nc21 [Dye 24] | +1.00 | – | 13 mm | – | – | 13 mm | 32.8% | No | 13.5 mm | 14 mm | 13 mm | Slight | No | 13 mm | 14 mm | No | 0 | found to bind | – | -0.79 volts | Diameter of Inhibition ([2]; Table II, 10^-4 molar, 26° C., forty-eight hours): None; Diameter of Inhibition ([2]; Table IX, 10^-4 M): None
6 | CCN1C(=CC=Cc2sc3cc([N+](=O)[O-])ccc3[n+]2CC)Sc2cc([N+](=O)[O-])ccc21 [Dye 29] | – | – | – | – | – | – | – | – | – | – | – | – | – | – | – | – | 0 | – | – | – | Diameter of Inhibition ([2]; Table IX, 10^-3 M): None; Activity Rating ([2]; Table IX, 10^-3 M, relative to phenol concentration giving equal diameter, Dye 7 = 100 (dye 20 relative to dye 17)): 0; % Bound (Bacillus pumilus (K-1); Table IX): 67.9%; reduction potential (ER) ([3]; list of dyes, vs. silver-silver chloride electrode, 20° C.): -0.58 volts
